SMILES strings stand for the structures.

In general, IC50 refers to the concentration needed to halve the response being measured.

Assay [1] has as its target Voltage-gated inwardly rectifying potassium channel KCNH2 (Homo sapiens, UniProt Q12809). Put plainly: Inhibition of human ERG by [35S]-MK499 displacement or iKr channel assay.
Assay [2] has as its target T1, Tyrosine-protein kinase BTK (Homo sapiens, UniProt Q06187). Briefly: Inhibition of recombinant full-length His6-tagged BTK (unknown origin) expressed in baculovirus infected Sf9 cells using biotinylated A5 peptide as substrate preincubated for 60 mins followed by substrate addition measured after 120 mins by LANCE TR-FRET assay. For orientation: In TR-FRET formats the signal depends on donor and acceptor labels being close together.

Assay [3] has as its target T1, Tyrosine-protein kinase BTK. Briefly: Inhibition of BTK in human PBMC assessed as reduction in anti-IgM-induced MIP1beta.
In assay [4] the target is Tyrosine-protein kinase Blk (Homo sapiens, UniProt P51451). Put plainly: Inhibition of BLK (unknown origin).
For assay [5], the species on record is Homo sapiens. Briefly: Selectivity ratio of IC50 for BLK (unknown origin) to IC50 for BTK (unknown origin).
Assay [6] deals with T2, Cytoplasmic tyrosine-protein kinase BMX (Homo sapiens, UniProt P51813).
T2 sequence (P51813 whole entry): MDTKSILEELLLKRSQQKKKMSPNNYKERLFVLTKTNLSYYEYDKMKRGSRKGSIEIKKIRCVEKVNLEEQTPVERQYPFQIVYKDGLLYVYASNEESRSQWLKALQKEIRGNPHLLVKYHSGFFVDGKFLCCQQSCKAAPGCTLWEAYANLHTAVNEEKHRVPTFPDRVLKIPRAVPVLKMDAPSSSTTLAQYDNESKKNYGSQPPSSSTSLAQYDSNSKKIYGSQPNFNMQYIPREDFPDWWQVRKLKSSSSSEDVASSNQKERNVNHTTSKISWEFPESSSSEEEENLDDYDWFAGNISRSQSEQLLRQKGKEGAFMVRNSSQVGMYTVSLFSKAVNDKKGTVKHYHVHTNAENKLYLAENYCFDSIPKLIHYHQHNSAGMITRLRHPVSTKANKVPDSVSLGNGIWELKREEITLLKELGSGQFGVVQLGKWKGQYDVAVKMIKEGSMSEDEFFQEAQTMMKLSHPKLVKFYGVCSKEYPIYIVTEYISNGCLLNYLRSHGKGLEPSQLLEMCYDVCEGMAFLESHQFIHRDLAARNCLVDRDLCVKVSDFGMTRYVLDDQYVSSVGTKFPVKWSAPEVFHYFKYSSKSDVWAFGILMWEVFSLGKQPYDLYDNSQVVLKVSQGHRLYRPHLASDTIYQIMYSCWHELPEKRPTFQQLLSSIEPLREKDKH
Put plainly: Inhibition of BMX (unknown origin).

The species named for assay [7] is Homo sapiens. Put plainly: Selectivity ratio of IC50 for BMX (unknown origin) to IC50 for BTK (unknown origin).
Assay [8] concerns the target Tyrosine-protein kinase CSK (Homo sapiens, UniProt P41240). Put plainly: Inhibition of CSK (unknown origin).
The species entered for assay [9] is Homo sapiens. Briefly: Selectivity ratio of IC50 for CSK (unknown origin) to IC50 for BTK (unknown origin).
The target in assay [10] is Receptor tyrosine-protein kinase erbB-4 (Homo sapiens, UniProt Q15303). Briefly: Inhibition of ERBB4 (unknown origin).
The species named for assay [11] is Homo sapiens. Briefly: Selectivity ratio of IC50 for ERBB4 (unknown origin) to IC50 for BTK (unknown origin).
In assay [12] the target is Tyrosine-protein kinase Fgr (Homo sapiens, UniProt P09769). Briefly: Inhibition of FGR (unknown origin).
Tyrosine-protein kinase Fgr, sequence (P09769 whole entry): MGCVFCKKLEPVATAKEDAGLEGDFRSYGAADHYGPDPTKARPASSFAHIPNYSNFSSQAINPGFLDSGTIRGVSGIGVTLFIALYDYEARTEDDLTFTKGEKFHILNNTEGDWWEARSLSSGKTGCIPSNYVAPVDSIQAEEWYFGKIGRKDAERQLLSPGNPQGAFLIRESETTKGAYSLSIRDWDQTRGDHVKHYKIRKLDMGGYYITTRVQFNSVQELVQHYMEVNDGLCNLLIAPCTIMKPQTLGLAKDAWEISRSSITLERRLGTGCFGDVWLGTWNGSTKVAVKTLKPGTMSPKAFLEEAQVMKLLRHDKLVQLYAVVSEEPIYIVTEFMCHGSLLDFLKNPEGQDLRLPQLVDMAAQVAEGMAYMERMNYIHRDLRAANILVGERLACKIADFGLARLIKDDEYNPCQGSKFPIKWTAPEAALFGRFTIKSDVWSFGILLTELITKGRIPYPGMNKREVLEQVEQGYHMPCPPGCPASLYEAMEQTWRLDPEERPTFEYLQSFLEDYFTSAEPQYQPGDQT
The species entered for assay [13] is Homo sapiens. Put plainly: Selectivity ratio of IC50 for FGR (unknown origin) to IC50 for BTK (unknown origin).
The target in assay [14] is Tyrosine-protein kinase FRK (Homo sapiens, UniProt P42685). Put plainly: Inhibition of FRK (unknown origin).
Tyrosine-protein kinase FRK, sequence (P42685 whole entry): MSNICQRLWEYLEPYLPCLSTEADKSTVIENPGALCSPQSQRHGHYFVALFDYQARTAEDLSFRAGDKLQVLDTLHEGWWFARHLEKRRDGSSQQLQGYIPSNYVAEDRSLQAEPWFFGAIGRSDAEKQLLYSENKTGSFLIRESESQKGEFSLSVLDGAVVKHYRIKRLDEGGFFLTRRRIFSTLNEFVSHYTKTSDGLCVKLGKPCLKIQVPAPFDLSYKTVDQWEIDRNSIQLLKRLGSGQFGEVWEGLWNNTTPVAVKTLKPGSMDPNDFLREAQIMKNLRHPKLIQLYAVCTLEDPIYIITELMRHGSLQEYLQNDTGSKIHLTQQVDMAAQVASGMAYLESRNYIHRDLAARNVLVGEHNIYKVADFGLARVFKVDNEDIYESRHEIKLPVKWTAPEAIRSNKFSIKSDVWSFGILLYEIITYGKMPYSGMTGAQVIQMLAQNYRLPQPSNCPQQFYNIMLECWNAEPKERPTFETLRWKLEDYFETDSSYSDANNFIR
For assay [15], the species on record is Homo sapiens. Briefly: Selectivity ratio of IC50 for FRK (unknown origin) to IC50 for BTK (unknown origin).
Assay [16] concerns the target Tyrosine-protein kinase Fyn (Homo sapiens, UniProt P06241). Briefly: Inhibition of FYN (unknown origin).
The species entered for assay [17] is Homo sapiens. Briefly: Selectivity ratio of IC50 for FYN (unknown origin) to IC50 for BTK (unknown origin).
For assay [18], the target named is Tyrosine-protein kinase Lck (Homo sapiens, UniProt P06239). Put plainly: Inhibition of LCK (unknown origin).
For assay [19], the species on record is Homo sapiens. Put plainly: Selectivity ratio of IC50 for LCK (unknown origin) to IC50 for BTK (unknown origin).
Assay [20] has as its target Tyrosine-protein kinase Lyn (Homo sapiens, UniProt P07948). Briefly: Inhibition of LYNB (unknown origin).
Assay [21] is filed under the species Homo sapiens. Briefly: Selectivity ratio of IC50 for LYNB (unknown origin) to IC50 for BTK (unknown origin).
In assay [22] the target is Protein-tyrosine kinase 6 (Homo sapiens, UniProt Q13882). Put plainly: Inhibition of PTK6 (unknown origin).
Protein-tyrosine kinase 6, sequence (Q13882 whole entry): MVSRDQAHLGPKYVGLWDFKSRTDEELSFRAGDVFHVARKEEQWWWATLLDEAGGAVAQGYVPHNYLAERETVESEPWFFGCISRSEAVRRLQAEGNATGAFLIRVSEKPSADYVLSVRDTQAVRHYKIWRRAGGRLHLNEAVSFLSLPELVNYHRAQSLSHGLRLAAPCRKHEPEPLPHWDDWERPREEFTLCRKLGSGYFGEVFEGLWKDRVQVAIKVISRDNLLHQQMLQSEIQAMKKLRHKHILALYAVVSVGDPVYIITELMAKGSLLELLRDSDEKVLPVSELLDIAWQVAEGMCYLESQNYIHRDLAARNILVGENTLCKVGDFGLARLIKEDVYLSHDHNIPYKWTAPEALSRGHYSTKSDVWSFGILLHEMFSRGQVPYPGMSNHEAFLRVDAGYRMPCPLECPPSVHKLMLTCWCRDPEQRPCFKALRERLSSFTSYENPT
For assay [23], the species on record is Homo sapiens. Briefly: Selectivity ratio of IC50 for PTK6 (unknown origin) to IC50 for BTK (unknown origin).
Assay [24] concerns the target Proto-oncogene tyrosine-protein kinase Src (Homo sapiens, UniProt P12931). Put plainly: Inhibition of SRC (unknown origin).
Assay [25] is filed under the species Homo sapiens. Put plainly: Selectivity ratio of IC50 for SRC (unknown origin) to IC50 for BTK (unknown origin).
For assay [26], the target named is Tyrosine-protein kinase Srms (Homo sapiens, UniProt Q9H3Y6). Briefly: Inhibition of SRMS (unknown origin).
Tyrosine-protein kinase Srms, sequence (Q9H3Y6 whole entry): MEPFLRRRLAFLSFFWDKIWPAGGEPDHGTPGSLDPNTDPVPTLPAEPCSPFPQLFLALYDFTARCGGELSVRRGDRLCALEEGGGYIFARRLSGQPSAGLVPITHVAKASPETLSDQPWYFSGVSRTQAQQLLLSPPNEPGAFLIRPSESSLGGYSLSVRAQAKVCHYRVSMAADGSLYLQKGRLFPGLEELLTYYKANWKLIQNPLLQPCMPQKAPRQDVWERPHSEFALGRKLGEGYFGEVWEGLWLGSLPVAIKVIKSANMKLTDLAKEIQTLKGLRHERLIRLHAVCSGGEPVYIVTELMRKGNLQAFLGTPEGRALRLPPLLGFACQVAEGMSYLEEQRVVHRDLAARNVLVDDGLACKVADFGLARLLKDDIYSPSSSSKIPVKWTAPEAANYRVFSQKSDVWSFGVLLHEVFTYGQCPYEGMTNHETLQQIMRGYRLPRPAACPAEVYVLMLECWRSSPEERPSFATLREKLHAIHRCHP
For assay [27], the species on record is Homo sapiens. Briefly: Selectivity ratio of IC50 for SRMS (unknown origin) to IC50 for BTK (unknown origin).
The target of assay [28] is T3, Tyrosine-protein kinase Tec (Homo sapiens, UniProt P42680).
T3 sequence (P42680 whole entry): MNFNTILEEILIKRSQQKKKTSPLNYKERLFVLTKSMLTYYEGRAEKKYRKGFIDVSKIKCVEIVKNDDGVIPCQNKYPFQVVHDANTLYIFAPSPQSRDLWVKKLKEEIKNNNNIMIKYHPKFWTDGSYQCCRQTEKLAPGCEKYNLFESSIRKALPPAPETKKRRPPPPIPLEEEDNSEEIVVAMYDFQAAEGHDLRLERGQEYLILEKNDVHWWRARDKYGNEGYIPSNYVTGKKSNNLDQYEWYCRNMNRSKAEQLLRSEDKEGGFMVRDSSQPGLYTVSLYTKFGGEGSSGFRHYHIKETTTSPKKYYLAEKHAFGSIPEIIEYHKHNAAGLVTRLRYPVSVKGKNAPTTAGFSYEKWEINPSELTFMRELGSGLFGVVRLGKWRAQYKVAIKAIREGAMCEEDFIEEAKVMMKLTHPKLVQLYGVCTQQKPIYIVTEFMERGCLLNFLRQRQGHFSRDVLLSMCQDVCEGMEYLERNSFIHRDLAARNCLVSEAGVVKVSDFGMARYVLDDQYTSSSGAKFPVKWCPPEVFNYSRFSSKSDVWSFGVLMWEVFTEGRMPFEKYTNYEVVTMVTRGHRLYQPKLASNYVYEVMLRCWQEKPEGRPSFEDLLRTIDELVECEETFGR
Briefly: Inhibition of TEC (unknown origin).

Assay [29] is filed under the species Homo sapiens. Briefly: Selectivity ratio of IC50 for TEC (unknown origin) to IC50 for BTK (unknown origin).
Assay [30] concerns the target T4, Tyrosine-protein kinase TXK (Homo sapiens, UniProt P42681).
T4 sequence (P42681 whole entry): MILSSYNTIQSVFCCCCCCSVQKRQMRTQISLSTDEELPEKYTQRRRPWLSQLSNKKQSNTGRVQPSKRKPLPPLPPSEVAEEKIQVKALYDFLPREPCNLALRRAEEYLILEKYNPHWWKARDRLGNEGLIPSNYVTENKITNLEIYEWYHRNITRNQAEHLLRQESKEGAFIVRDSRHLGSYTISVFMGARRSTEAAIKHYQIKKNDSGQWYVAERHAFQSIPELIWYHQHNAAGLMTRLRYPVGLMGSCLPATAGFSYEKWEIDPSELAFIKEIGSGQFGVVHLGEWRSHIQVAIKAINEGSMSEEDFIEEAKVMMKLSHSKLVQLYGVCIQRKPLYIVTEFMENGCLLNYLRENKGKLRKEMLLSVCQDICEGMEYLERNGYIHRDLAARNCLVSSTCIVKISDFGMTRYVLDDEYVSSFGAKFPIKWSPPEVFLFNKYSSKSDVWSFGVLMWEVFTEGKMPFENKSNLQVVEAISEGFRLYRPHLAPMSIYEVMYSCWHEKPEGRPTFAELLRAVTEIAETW
Briefly: Inhibition of TXK (unknown origin).

For assay [31], the species on record is Homo sapiens. Briefly: Selectivity ratio of IC50 for TXK (unknown origin) to IC50 for BTK (unknown origin).
The target in assay [32] is Tyrosine-protein kinase Yes (Homo sapiens, UniProt P07947). Put plainly: Inhibition of YES1 (unknown origin).
Tyrosine-protein kinase Yes, sequence (P07947 whole entry): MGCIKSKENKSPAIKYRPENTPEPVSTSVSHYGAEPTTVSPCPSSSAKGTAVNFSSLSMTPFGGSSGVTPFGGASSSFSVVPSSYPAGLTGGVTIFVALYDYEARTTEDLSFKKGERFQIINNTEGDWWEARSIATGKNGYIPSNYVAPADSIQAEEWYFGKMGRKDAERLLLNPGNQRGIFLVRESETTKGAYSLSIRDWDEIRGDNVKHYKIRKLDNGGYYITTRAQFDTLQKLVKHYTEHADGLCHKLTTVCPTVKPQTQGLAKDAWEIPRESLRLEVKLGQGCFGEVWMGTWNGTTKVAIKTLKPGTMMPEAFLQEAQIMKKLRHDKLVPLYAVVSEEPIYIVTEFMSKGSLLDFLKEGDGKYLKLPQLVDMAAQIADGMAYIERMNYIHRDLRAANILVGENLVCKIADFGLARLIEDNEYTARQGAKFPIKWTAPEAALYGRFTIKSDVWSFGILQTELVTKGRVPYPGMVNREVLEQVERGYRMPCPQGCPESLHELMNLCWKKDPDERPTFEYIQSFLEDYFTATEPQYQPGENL
The species entered for assay [33] is Homo sapiens. Put plainly: Selectivity ratio of IC50 for YES1 (unknown origin) to IC50 for BTK (unknown origin).

Voltage-gated inwardly rectifying potassium channel KCNH2, sequence (Q12809 whole entry): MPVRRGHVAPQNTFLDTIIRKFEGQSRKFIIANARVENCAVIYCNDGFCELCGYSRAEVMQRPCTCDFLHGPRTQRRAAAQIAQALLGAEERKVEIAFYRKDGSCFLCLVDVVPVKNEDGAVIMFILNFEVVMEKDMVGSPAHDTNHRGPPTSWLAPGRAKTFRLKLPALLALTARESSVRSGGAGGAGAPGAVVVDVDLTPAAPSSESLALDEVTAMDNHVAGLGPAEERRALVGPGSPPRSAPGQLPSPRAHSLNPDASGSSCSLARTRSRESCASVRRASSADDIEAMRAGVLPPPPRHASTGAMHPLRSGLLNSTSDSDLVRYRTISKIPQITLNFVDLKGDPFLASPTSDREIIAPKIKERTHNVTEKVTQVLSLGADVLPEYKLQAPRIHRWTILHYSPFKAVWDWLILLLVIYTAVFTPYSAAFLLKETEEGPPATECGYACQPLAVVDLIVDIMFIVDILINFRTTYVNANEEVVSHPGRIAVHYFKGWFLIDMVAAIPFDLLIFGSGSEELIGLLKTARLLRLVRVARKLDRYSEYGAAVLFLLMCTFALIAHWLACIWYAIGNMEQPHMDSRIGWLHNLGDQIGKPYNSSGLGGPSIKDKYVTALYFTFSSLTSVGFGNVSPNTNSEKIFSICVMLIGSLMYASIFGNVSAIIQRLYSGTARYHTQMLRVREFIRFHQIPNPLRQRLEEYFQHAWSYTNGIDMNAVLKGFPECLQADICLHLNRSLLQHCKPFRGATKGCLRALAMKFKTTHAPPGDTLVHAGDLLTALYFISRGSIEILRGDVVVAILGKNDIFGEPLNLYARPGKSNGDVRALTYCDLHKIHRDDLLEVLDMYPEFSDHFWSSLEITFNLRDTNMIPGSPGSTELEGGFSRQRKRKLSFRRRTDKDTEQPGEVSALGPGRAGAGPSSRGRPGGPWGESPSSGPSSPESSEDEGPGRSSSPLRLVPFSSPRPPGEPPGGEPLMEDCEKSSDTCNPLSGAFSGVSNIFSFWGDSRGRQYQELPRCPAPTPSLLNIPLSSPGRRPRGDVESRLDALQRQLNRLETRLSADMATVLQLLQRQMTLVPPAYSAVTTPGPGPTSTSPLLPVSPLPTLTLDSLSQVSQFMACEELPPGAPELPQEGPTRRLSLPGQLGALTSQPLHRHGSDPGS
T1 sequence (Q06187 whole entry): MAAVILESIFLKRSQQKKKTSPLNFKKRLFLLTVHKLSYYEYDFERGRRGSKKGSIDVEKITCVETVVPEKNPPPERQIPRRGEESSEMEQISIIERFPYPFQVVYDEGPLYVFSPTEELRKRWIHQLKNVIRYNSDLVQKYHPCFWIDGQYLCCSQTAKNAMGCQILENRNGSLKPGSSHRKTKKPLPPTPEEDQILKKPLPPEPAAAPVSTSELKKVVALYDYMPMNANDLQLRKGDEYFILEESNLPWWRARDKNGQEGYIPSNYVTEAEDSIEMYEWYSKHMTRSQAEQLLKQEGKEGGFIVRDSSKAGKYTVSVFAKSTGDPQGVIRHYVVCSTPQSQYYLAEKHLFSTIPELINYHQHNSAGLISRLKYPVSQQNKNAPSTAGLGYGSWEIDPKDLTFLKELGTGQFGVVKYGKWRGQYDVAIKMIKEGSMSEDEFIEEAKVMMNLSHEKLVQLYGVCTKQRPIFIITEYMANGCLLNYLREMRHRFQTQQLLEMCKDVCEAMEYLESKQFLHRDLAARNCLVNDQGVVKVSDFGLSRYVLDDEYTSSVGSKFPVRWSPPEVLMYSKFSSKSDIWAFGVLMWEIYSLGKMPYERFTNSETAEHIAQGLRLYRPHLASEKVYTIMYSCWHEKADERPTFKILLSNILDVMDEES
Tyrosine-protein kinase Lyn, sequence (P07948 whole entry): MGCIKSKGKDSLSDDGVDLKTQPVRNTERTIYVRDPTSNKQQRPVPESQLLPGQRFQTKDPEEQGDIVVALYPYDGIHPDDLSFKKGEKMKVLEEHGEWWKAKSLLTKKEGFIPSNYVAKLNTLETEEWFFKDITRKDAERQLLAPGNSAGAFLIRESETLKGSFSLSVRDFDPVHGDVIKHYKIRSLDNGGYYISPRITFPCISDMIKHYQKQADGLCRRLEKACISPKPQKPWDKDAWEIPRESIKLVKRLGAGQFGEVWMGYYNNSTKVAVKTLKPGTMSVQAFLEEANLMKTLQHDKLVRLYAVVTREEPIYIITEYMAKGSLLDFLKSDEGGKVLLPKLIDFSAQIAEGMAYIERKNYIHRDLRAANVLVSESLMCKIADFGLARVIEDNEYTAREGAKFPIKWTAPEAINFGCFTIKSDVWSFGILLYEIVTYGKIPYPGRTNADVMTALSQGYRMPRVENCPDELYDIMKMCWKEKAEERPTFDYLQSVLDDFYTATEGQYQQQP

As for `COCCC(=O)N1CCSC(c2nc(-c3ccc(C(=O)Nc4cc(C(F)(F)F)ccn4)cc3)c3c(N)nccn23)C1` (stereo not drawn), in [1], the IC50 was 1800 nM.

Turning to `Nc1nccn2c([C@@H]3CCCN(C4CCOCC4)C3)nc(-c3ccc(C(=O)Nc4cc(C(F)(F)F)ccn4)cc3F)c12`, the IC50 in assay [2] is 0.8 to 0.83 nM; in [3], 65 nM; in [1] it was 100 nM; in assay [4], 29 nM; in assay [6] it was 127 nM; in assay [8], 455 nM. For the same compound, the IC50 in assay [10] came out at 59 nM; in assay [12], 22 nM; in [14], 85 nM; in [16], 105 nM; in assay [18], 7 nM; in [20], 115 nM. For the same compound, the IC50 in assay [22] amounted to 48 nM; in assay [24], 77 nM; in assay [26], 50 nM; in assay [28], 170 nM; in [30], 231 nM; in assay [32] it was 32 nM. Further, the Ratio IC50 in the assay filed under Homo sapiens [5] worked out at 35; in the assay listed under Homo sapiens [7] it was 153; in the assay filed under Homo sapiens [9], 548; in the assay listed under Homo sapiens [11], 71; in the assay listed under Homo sapiens [13], 26; in the assay listed under Homo sapiens [15], 102. The Ratio IC50 is 127 in the assay filed under Homo sapiens [17]; 9 in the assay filed under Homo sapiens [19]; 138 in the assay filed under Homo sapiens [21]; 58 in the assay filed under Homo sapiens [23]; 93 in the assay listed under Homo sapiens [25]; 60 in the assay filed under Homo sapiens [27]. The Ratio IC50 in the assay filed under Homo sapiens [29] came out at 205; in the assay listed under Homo sapiens [31] it was 278; in the assay filed under Homo sapiens [33], 38.

In the case of `COCCC(=O)N1CCO[C@@H](c2nc(-c3ccc(C(=O)Nc4cc(C(F)(F)F)ccn4)cc3)c3c(N)nccn23)C1`, in [1], the IC50 was 5800 nM.

`CC1(C(=O)N2CC[C@@H](c3nc(-c4ccc(C(=O)Nc5cc(C(F)(F)F)ccn5)cc4)c4c(N)nccn34)C2)COC1`: the IC50 in [1] is 2500 nM.

The compound `CC1(C(=O)N2CC(c3nc(-c4ccc(C(=O)Nc5cc(C(F)(F)F)ccn5)cc4)c4c(N)nccn34)C2)COC1` showed an IC50 in [1] of 400 nM.

As to `CC1(C(=O)N2CCO[C@@H](c3nc(-c4ccc(C(=O)Nc5cc(C(F)(F)F)ccn5)cc4)c4c(N)nccn34)C2)COC1`, the IC50 in [1] came to 14400 nM.

For the origin of these results see ChEMBL document CHEMBL4052776, “Discovery of 3-morpholino-imidazole[1,5-a]pyrazine BTK inhibitors for rheumatoid arthritis” (Bioorg Med Chem Lett, 2017).
